# Like-named read-outs stand apart in the source and are kept apart here. Where no end group is shown, it is not given here.
# Key:
# HLA-A3001 = molecular target: T1, HLA-A3001 (Homo sapiens, UniProt P04439, D140H/D185E/E176W/F33S/G80R/H175R/K168Q/R138E/R41S); test: cell-based; assay type: binding; settings: for inhibition at 5 µM / inhibition at 15 µM / 5-μM inhibition (%) / 15-μM inhibition (%): 24 h; for inhibition at 5 µM: read-out: 5-μM inhibition (%); for inhibition at 15 µM: read-out: 15-μM inhibition (%)
# T1 construct: expressed in transfected cells; host or cells: HMy2.CIR
# HLA-A1101 = molecular target: T2, HLA-A1101 (Homo sapiens, UniProt P04439, A114D/D185E/E176A/F33Y/L180Q/S129P/T187R); test: cell-based; assay type: binding
# T2 construct: expressed in transfected cells; host or cells: HMy2.CIR
# HLA-A0301 = molecular target: T3, HLA-A0301 (Homo sapiens, UniProt P04439); test: cell-based; assay type: binding; settings: for inhibition at 5 µM: read-out: 5-μM inhibition (%); for inhibition at 15 µM: read-out: 15-μM inhibition (%)
# T3 construct: expressed in transfected cells; host or cells: HMy2.CIR
# HLA-A1102 = HLA-A1102 (Homo sapiens, UniProt P04439, A114D/D185E/E176A/E43K/F33Y/L180Q/S129P/T187R); test: cell-based; assay type: binding; settings: A1102, 24 h, 4°C, flow cytometry
# HLA-A0101 = molecular target: T4, HLA-A0101 (Homo sapiens, UniProt P04439, A114D/A174V/A182V/D101N/D185E/E176A/E190D/L180R/Q94H/R68K/S129P/T187R/V100A/V91M/W191G); test: Peptide competitive binding assay, HMy2.CIR cells expressing A0101; settings: for inhibition at 5 µM / inhibition at 15 µM: 24 h; for inhibition at 5 µM: read-out: 5-μM inhibition (%); for inhibition at 15 µM: read-out: 15-μM inhibition (%)
# T4 construct: expressed in transfected cells; host or cells: HMy2.CIR
# HLA-A0206 = molecular target: T5, HLA-A0206 (Homo sapiens, UniProt P04439, D140Y/D185E/D98H/E176V/E277Q/F33Y/G131W/G231S/I119V/I121R/I166T/I218V/L300P/L318F/N151K/N90K/P208A/P217A/Q86G/Q94H/R138H/R169H/T345S); test: Peptide competitive binding assay, HMy2.CIR cells expressing A0206; settings: for 5-μM inhibition (%) / inhibition at 5 µM: peptide 5 μM vs FITC-labeled reference peptide 300 nM; for 5-μM inhibition (%) / 15-μM inhibition (%) / inhibition at 5 µM / inhibition at 15 µM: 24 h, 4°C, flow cytometry; for 15-μM inhibition (%) / inhibition at 15 µM: peptide 15 μM vs FITC-labeled reference peptide 300 nM
# T5 construct: expressed in transfected cells; host or cells: HMy2.CIR
# HLA-A0207 = molecular target: T6, HLA-A0207 (Homo sapiens, UniProt P04439, D140Y/D185E/D98H/E176V/E277Q/G131W/G231S/I119V/I121R/I166T/I218V/L300P/L318F/N151K/N90K/P208A/P217A/Q86G/Q94H/R138H/R169H/T345S/Y123C); test: Peptide competitive binding assay, HMy2.CIR cells expressing A0207; settings: 24 h, 4°C, flow cytometry; for 5-μM inhibition (%) / inhibition at 5 µM: peptide 5 μM vs FITC-labeled reference peptide 300 nM; for 15-μM inhibition (%) / inhibition at 15 µM: peptide 15 μM vs FITC-labeled reference peptide 300 nM
# T6 construct: expressed in transfected cells; host or cells: HMy2.CIR
# HLA-A0201 = molecular target: T7, HLA-A0201 (Homo sapiens, UniProt P04439, D140Y/D185E/D98H/E176V/E277Q/G131W/G231S/I119V/I121R/I166T/I218V/L300P/L318F/N151K/N90K/P208A/P217A/Q86G/Q94H/R138H/R169H/T345S); test: cell-based; assay type: binding; settings: for inhibition at 5 µM / inhibition at 15 µM / 5-μM inhibition (%) / 15-μM inhibition (%): A0201, 24 h, 4°C, flow cytometry; for inhibition at 5 µM / 5-μM inhibition (%): peptide 5 μM vs FITC-labeled reference peptide 300 nM; for inhibition at 5 µM: read-out: 5-μM inhibition (%); for inhibition at 15 µM / 15-μM inhibition (%): peptide 15 μM vs FITC-labeled reference peptide 300 nM; for inhibition at 15 µM: read-out: 15-μM inhibition (%)
# T7 construct: expressed in transfected cells; host or cells: HMy2.CIR
# HLA-A0203 = molecular target: T8, HLA-A0203 (Homo sapiens, UniProt P04439, A173T/D140Y/D185E/D98H/E277Q/G131W/G231S/I119V/I121R/I166T/I218V/L180W/L300P/L318F/N151K/N90K/P208A/P217A/Q86G/Q94H/R138H/R169H/T345S); test: cell-based; assay type: binding
# T8 construct: expressed in transfected cells; host or cells: HMy2.CIR
# [1] = A3001, peptide 5 μM vs FITC-labeled reference peptide 300 nM, 4°C, flow cytometry
# [2] = A3001, peptide 15 μM vs FITC-labeled reference peptide 300 nM, 4°C, flow cytometry
# [3] = A0301, peptide 5 μM vs FITC-labeled reference peptide 300 nM, 24 h, 4°C, flow cytometry
# [4] = A0301, peptide 15 μM vs FITC-labeled reference peptide 300 nM, 24 h, 4°C, flow cytometry
# [5] = A0101, peptide 5 μM vs FITC-labeled reference peptide 300 nM, 4°C, flow cytometry
# [6] = A0101, peptide 15 μM vs FITC-labeled reference peptide 300 nM, 4°C, flow cytometry
# T3 sequence (P61769 21-119): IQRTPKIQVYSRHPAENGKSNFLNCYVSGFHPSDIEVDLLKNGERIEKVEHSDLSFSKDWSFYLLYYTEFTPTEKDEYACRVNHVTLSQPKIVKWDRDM
# T3 sequence (P04439 25-365): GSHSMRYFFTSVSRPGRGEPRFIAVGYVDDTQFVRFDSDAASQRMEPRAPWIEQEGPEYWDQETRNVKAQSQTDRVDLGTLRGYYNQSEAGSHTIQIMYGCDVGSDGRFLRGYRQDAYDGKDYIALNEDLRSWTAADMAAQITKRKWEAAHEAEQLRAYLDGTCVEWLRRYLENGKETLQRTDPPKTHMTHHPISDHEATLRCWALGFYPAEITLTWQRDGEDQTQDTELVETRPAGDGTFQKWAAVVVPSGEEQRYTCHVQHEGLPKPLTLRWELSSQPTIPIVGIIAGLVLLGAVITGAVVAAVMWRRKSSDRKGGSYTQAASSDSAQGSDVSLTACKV
# Chain of HLA-A1102 (P04439 25-365 limits assumed, stated change not applied): as the sequence (P04439 25-365) above
compound,measurement,setting,value
CC[C@H](C)[C@H](NC(=O)[C@H](C)N)C(=O)N[C@@H](Cc1ccccc1)C(=O)N[C@@H](CCC(N)=O)C(=O)N[C@@H](CO)C(=O)N[C@@H](CO)C(=O)N[C@@H](CCSC)C(=O)N[C@H](C(=O)N[C@@H](CCCCN)C(=O)O)[C@@H](C)O [Peptide P40],IC50,HLA-A3001,< 5 µM
same,inhibition at 5 µM,HLA-A3001,60.4%
same,inhibition at 15 µM,HLA-A3001,67.7%
same,IC50,HLA-A1101,< 5 µM
same,inhibition at 5 µM,"HLA-A1101; A1101, peptide 5 μM vs FITC-labeled reference peptide 300 nM, 24 h, 4°C, flow cytometry, read-out: 5-μM inhibition (%)",67.9%
same,inhibition at 15 µM,"HLA-A1101; A1101, peptide 15 μM vs FITC-labeled reference peptide 300 nM, 24 h, 4°C, flow cytometry, read-out: 15-μM inhibition (%)",89.5%
same,IC50,HLA-A0301,5 to 15 µM
same,inhibition at 5 µM,HLA-A0301; 24 h,22.4%
same,inhibition at 15 µM,HLA-A0301; 24 h,50.6%
same,inhibition at 5 µM,"HLA-A1102; peptide 5 μM vs FITC-labeled reference peptide 300 nM, read-out: 5-μM inhibition (%)",2.89%
same,inhibition at 15 µM,"HLA-A1102; peptide 15 μM vs FITC-labeled reference peptide 300 nM, read-out: 15-μM inhibition (%)",16.1%
ASRELERFA [Peptide P90],IC50,HLA-A3001,5 to 15 µM
same,inhibition at 5 µM,HLA-A3001; [1],17.7%
same,inhibition at 15 µM,HLA-A3001; [2],58%
EADGKVSQNY [Peptide P67],IC50,HLA-A0101,5 to 15 µM
same,inhibition at 5 µM,HLA-A0101,21.4%
same,inhibition at 15 µM,HLA-A0101,62%
KIILVAVHV [Peptide P75],5-μM inhibition (%),HLA-A0206,3.69%
same,15-μM inhibition (%),HLA-A0206,5.11%
KIVRMYSPV [Peptide P71],5-μM inhibition (%),HLA-A0206,6.54%
same,15-μM inhibition (%),HLA-A0206,14.21%
KLAGRWPVK [Peptide P95],IC50,HLA-A3001,< 5 µM
same,inhibition at 5 µM,HLA-A3001; [1],83.7%
same,inhibition at 15 µM,HLA-A3001; [2],95.9%
same,IC50,HLA-A0301,5 to 15 µM
same,inhibition at 5 µM,HLA-A0301; [3],28.9%
same,inhibition at 15 µM,HLA-A0301; [4],53.7%
KLVSSGIRK [Peptide P85],5-μM inhibition (%),HLA-A0301; [3],19.14%
same,15-μM inhibition (%),HLA-A0301; [4],38.04%
KVILVAVHV [Peptide P74],5-μM inhibition (%),HLA-A0206,20.64%
KVVPRRKAK [Peptide P93],5-μM inhibition (%),HLA-A3001; [1],16.92%
same,15-μM inhibition (%),HLA-A3001; [2],41.10%
KVYLSWVPA [Peptide P94],5-μM inhibition (%),HLA-A3001; [1],27.40%
same,15-μM inhibition (%),HLA-A3001; [2],45.93%
LLYWGQELK [Peptide P84],IC50,HLA-A0301,5 to 15 µM
same,inhibition at 5 µM,HLA-A0301; [3],25.7%
same,inhibition at 15 µM,HLA-A0301; [4],56.2%
LVDTIAIAV [Peptide P77],5-μM inhibition (%),HLA-A0207,9.36%
same,15-μM inhibition (%),HLA-A0207,23.40%
QIINMWQEV [Peptide P73],5-μM inhibition (%),HLA-A0206,25.71%
same,15-μM inhibition (%),HLA-A0206,27.84%
QLPEKDSWTV [Peptide P14],inhibition at 5 µM,HLA-A0207,0%
same,inhibition at 15 µM,HLA-A0207,8.35%
same,IC50,HLA-A0201,5 to 15 µM
same,inhibition at 5 µM,HLA-A0201,27.6%
same,inhibition at 15 µM,HLA-A0201,81.5%
QLTEVVQKV [Peptide P80],5-μM inhibition (%),HLA-A0207,20.67%
same,15-μM inhibition (%),HLA-A0207,25.60%
RLINCNTSV [Peptide P6],IC50,HLA-A0203,5 to 15 µM
same,inhibition at 5 µM,"HLA-A0203; A0203, peptide 5 μM vs FITC-labeled reference peptide 300 nM, 24 h, 4°C, flow cytometry, read-out: 5-μM inhibition (%)",15.8%
same,inhibition at 15 µM,"HLA-A0203; A0203, peptide 15 μM vs FITC-labeled reference peptide 300 nM, 24 h, 4°C, flow cytometry, read-out: 15-μM inhibition (%)",70.7%
same,inhibition at 5 µM,HLA-A0206,14.6%
same,inhibition at 15 µM,HLA-A0206,41.8%
same,inhibition at 5 µM,HLA-A0201,0.13%
same,inhibition at 15 µM,HLA-A0201,23.6%
RLRGFILVA [Peptide P92],5-μM inhibition (%),HLA-A3001; [1],18.53%
same,15-μM inhibition (%),HLA-A3001; [2],39.48%
RLRPGGRKK [Peptide P89],5-μM inhibition (%),HLA-A3001; [1],27.40%
same,15-μM inhibition (%),HLA-A3001; [2],39.48%
RVRQGYSPL [Peptide P91],IC50,HLA-A3001,< 5 µM
same,inhibition at 5 µM,HLA-A3001; [1],92.4%
same,inhibition at 15 µM,HLA-A3001; [2],100%
SLFNTVATL [Peptide P10],5-μM inhibition (%),"HLA-A0203; A0203, peptide 5 μM vs FITC-labeled reference peptide 300 nM, 24 h, 4°C, flow cytometry",20.39%
same,15-μM inhibition (%),"HLA-A0203; A0203, peptide 15 μM vs FITC-labeled reference peptide 300 nM, 24 h, 4°C, flow cytometry",42.50%
same,5-μM inhibition (%),HLA-A0207,0.00%
same,15-μM inhibition (%),HLA-A0207,7.34%
same,5-μM inhibition (%),HLA-A0201,15.75%
same,15-μM inhibition (%),HLA-A0201,31.36%
VLDVGDAYF [Peptide P81],5-μM inhibition (%),HLA-A0207,0.00%
same,15-μM inhibition (%),HLA-A0207,23.16%
VTDSQYALGI [Peptide P69],inhibition at 5 µM,HLA-A0101; [5],35.6%
same,inhibition at 15 µM,HLA-A0101; [6],71.2%
same,IC50,HLA-A0101; read-out: Affinity,5 to 15 µM
WIILGLNKI [Peptide P72],IC50,"HLA-A0206; class from inhibition at 5 and 15 μM of FITC-labeled reference peptide binding, read-out: Affinity",5 to 15 µM
same,inhibition at 5 µM,HLA-A0206,40.9%
same,inhibition at 15 µM,HLA-A0206,67.3%
YLKDQKFLGL [Peptide P78],5-μM inhibition (%),HLA-A0207,11.50%
same,15-μM inhibition (%),HLA-A0207,30.40%
YMEAEVIPA [Peptide P82],5-μM inhibition (%),HLA-A0207,13.67%
same,15-μM inhibition (%),HLA-A0207,30.79%
YQLEKDPIV [Peptide P11],5-μM inhibition (%),HLA-A0207,5.57%
same,15-μM inhibition (%),HLA-A0207,12.66%
same,5-μM inhibition (%),HLA-A0201,5.87%
same,15-μM inhibition (%),HLA-A0201,28.56%
YQYMDDLYV [Peptide P15],inhibition at 5 µM,HLA-A0207,20.1%
same,inhibition at 15 µM,HLA-A0207,27.6%
same,IC50,HLA-A0201,< 5 µM
same,inhibition at 5 µM,HLA-A0201,56.5%
same,inhibition at 15 µM,HLA-A0201,83%
YSENSSEYY [Peptide P68],IC50,"HLA-A0101; A0101, class from inhibition at 5 and 15 μM of FITC-labeled reference peptide binding, read-out: Affinity",< 5 µM
same,inhibition at 5 µM,HLA-A0101; [5],83.8%
same,inhibition at 15 µM,HLA-A0101; [6],94.2%
YVDRFFKTL [Peptide P76],5-μM inhibition (%),HLA-A0207,11.90%
same,15-μM inhibition (%),HLA-A0207,30.60%

# Reference: article PMC11850406, “Large-scale screening of HIV-1 T-cell epitopes restricted by 12 prevalent HLA-A allotypes in Northeast Asia and universal detection of HIV-1-specific CD8^+ T cells” (Frontiers in Microbiology, 2025)
